Measured values published in patent US20230277511A1, “RAPAMYCIN (RAPA) COMPOSITION AND PREPARATION METHOD THEREOF” (priority 2020, published 2023).

Tested on: AS model mice (ApoE−/− mice)
Experiment: Therapeutic effect on AS in AS model mice (plaque area)
Type: in vivo
Conditions: 1.5 mg/kg intraperitoneally every two days for 3 months, mean±SD, FIG. 10
Procedure: Animal: Apolipoprotein gene-knockout mice (ApoE−/− mice) each with a weight of 18 g to 25 g were purchased from Peking University Laboratory Animal Center.
Construction of AS model mice: The mice were raised to be 8 weeks old in an SPF-grade environment (room temperature: 23° C., relative humidity: 65%, and 12 h light-dark cycle) and then fed with a high-fat feed for 12 weeks to obtain the AS model mice, and then each of the AS model mice was administered. Blood vessels were collected and stained, and a proportion of a plaque area was calculated according to the following formula: AA:AA=P/PO. The data were expressed by mean±standard deviation (SD). The t-test was adopted for statistical analysis. P<0.05 indicated a significant difference. All data were analyzed by software.
Grouping and administration regimen: Blank group: Each of the mice was intraperitoneally injected with 0.2 mL of NS every two days. Control group: Each of the mice was intraperitoneally injected with a RAPA solution diluted with NS to a desired concentration (administration amount: 1.5 mg/kg) every two days. Drug group: Each of the mice was intraperitoneally injected with the RAPA composition in Example 4 at 1.5 mg/kg every two days. The administration was conducted continuously for 3 months, during which state changes in mice were observed. […]

SMILES: CO[C@H]1C[C@@H]2CC[C@@H](C)[C@@](O)(O2)C(=O)C(=O)N2CCCC[C@H]2C(=O)O[C@H]([C@H](C)C[C@@H]2CC[C@@H](O)[C@H](OC)C2)CC(=O)[C@H](C)/C=C(\C)[C@@H](O)[C@@H](OC)C(=O)[C@H](C)C[C@H](C)/C=C/C=C/C=C/1C [RAPA, rapamycin]
- plaque area/total vascular area: 48.33%±2.851%
